Our source for the IC50 values is patent US8258306B2, “Glycine transporter-1 inhibitors” (Amgen Inc., priority 2007, dated 2012).

Where a name gives a salt, the structure may show the parent alone.

The assay addresses T1, human glycine transporter type 1 (Gly-T1) (Homo sapiens, UniProt P48067).
T1 construct: JAR) cells endogenously expressing human glycine transporter type 1 (Gly-T1); endogenous in cells; host or cells: JAR human placental choriocarcinoma cells
T1 sequence (P48067 1-706): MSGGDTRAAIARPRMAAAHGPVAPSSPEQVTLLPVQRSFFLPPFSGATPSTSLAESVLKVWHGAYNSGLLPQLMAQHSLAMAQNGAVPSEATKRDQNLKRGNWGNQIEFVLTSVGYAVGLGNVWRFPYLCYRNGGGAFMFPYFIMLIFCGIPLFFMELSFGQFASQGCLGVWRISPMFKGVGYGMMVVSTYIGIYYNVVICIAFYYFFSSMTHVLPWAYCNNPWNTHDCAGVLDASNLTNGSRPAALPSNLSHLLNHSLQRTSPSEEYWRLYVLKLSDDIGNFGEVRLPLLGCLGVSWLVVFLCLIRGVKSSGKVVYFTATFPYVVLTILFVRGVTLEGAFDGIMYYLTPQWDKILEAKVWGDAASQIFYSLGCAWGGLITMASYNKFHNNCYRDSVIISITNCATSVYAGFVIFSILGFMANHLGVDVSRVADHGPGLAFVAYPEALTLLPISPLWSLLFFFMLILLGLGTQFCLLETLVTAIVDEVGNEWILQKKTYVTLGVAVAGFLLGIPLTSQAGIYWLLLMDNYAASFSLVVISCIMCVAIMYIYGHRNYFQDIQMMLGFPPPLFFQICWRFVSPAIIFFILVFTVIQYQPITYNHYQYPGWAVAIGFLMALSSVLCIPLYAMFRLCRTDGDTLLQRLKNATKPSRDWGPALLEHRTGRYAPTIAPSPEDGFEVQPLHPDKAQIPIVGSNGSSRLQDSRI
The assay can be described thus: Glycine Transporter 1 (GlyT1) Uptake Assay, in vitro. The class given is cell-based. The settings on record: inhibition of [14C] glycine uptake (5 μM) in JAR cells endogenously expressing GlyT1; approximate values. As for the experimental part:
This cell-based assay measures the ability of test compounds to inhibit the uptake of glycine by the glycine transporter type 1. Human placental choriocarcinoma (JAR) cells endogenously expressing human glycine transporter type 1 (Gly-T1) were used for this assay. For uptake assays, JAR cells were cultured in 96-well cytostar T scintillating microplates (Amersham Biosciences) in RPMI 1640 medium containing 10% fetal bovine serum in the presence of penicillin (100 μg/ml) and streptomycin (100 μg/ml). Cells were plated at a density of 4×10^4 cells/well and grown at 37° C. in a humidified atmosphere of 5% CO2 for 24 h.
Culture medium was removed from Cytostar plate and JAR cells were incubated with 30 μl of Uptake buffer (120 mM NaCl, 2 mM KCl, 1 mM CaCl2, 1 mM MgCl2, 10 mM Hepes, 5 mM alanine, pH 7.5) with or without compound for 5 min. Then 30 μl of [^14C] glycine (101 mCi/mmol, obtained from Perkin Elmer) diluted in Uptake buffer was added to each well to give a final concentration of 5 μM. After incubation at room temperature for the desired time usually 1-2 h, sealed 96-well Cytostar plates were counted on a TopCount (Packard). Nonspecific uptake of [^14C] glycine was determined in the presence of 10 μM cold ALX-5407 (Sigma).
IC50 curves were generated from the raw data collected from the TopCount and fitted with a four-parameter logistic equation using in-house data analysis tool, Activity Base.
Take `O=C(O)CN1CCC(N(c2ccccc2)c2cccc(C(F)(F)F)c2)CC1` [Cpd I-7, 2-(4-(phenyl(3-(trifluoromethyl)-phenyl)amino)piperidin-1-yl)-acetic acid]: the 50% inhibitory concentration (IC50) was determined as 393 nM.

Compound `O=C(O)CN1CCC(N(c2ccccc2)c2ccc(C(F)(F)F)cc2)C1` (centres unmarked) [Cpd II-5, 2-(3-(phenyl(4-(trifluoromethyl)-phenyl)amino)pyrrolidin-1-yl)acetic acid] registered a half-inhibitory concentration (IC50) of 18 nM.

The compound `C[C@@H]1CN(C2CCCCC2c2ccccc2)CCN1CC(=O)O` (stereo partly drawn) [Cpd I-6, 2-((R)-2-methyl-4-(2-phenylcyclohexyl)-piperazin-1-yl)acetic acid dihydrochloride] yielded an IC50 of 1130 nM.

Regarding `O=C(O)CN1CCN(c2cccc3ccccc23)CC1` [Cpd I-9, 2-(4-naphth-1-ylpiperazin-1-yl)acetic acid], the half-maximal inhibitory concentration (IC50) was over 10000 nM.

As for `O=C(O)CN1CCN(C2(c3ccccc3)CCCCC2)CC1` [Cpd I-13, 2-(4-(1-phenylcyclohexyl)piperazin-1-yl)acetic acid], the IC50 was over 10000 nM.

`O=C(O)CN1CCCC(N(c2ccccc2)c2cccc(C(F)(F)F)c2)C1` (centres unmarked) [Cpd II-4, 2-(3-(phenyl(3-(trifluoromethyl)-phenyl)amino)piperidin-1-yl)acetic acid] came in with a half-inhibitory concentration (IC50) of over 2000 nM.

For the compound `O=C(O)CN1CCC(C2c3ccccc3Oc3ccccc32)CC1` [Cpd I-30, 2-(4-(9H-xanthen-9-yl)piperidin-1-yl)acetic acid], the concentration for half-maximal inhibition (IC50) worked out at 5320 nM.

`C[C@@H]1CN(C2CCc3ccc(Br)cc32)CCN1CC(=O)O` (stereo partly drawn) [Cpd I-3, 2-((R)-4-(6-bromo-2,3-dihydro-1H-inden-1-yl)-2-methyl-piperazin-1-yl)acetic acid]: the IC50 was 1010 nM.

As to `O=C(O)CN1CCC(N(c2ccccc2)c2cccc(-c3cccnc3)c2)C1` (centres unmarked) [Cpd II-10, 2-(3-(phenyl(3-(pyridin-3-yl)-phenyl)amino)pyrrolidin-1-yl)acetic acid], the concentration for half-maximal inhibition (IC50) was found to be 14 nM.

In turn, `O=C(O)CN1CCCC(N(c2ccccc2)c2ccc(C(F)(F)F)cc2)C1` (centres unmarked) [Cpd II-3, 2-(3-(phenyl(4-(trifluoromethyl)-phenyl)amino)piperidin-1-yl)acetic acid] showed an IC50 of 296 nM.

Regarding `O=C(O)CN1CCC(C2c3ccccc3-c3ccccc32)CC1` [Cpd I-28, 2-(4-(9H-fluoren-9-yl)piperidin-1-yl)acetic acid], the IC50 is over 10000 nM.

Compound `C[C@@H]1CN(C2CCCCc3ccccc32)CCN1CC(=O)O` (stereo partly drawn) [Cpd I-1, 2-((R)-2-methyl-4-(6,7,8,9-tetrahydro-5H-benzo[7]annulen-5-yl)-piperazin-1-yl)acetic acid] gave an IC50 of 258 nM.

With `C[C@@H]1CN(c2cccc3ccccc23)CCN1CC(=O)O` [Cpd I-10, (R)-2-(2-methyl-4-naphth-1-ylpiperazin-1-yl)acetic acid], the concentration for half-maximal inhibition (IC50) came to 953 nM.

Consider `C[C@@H]1CN(C2(c3ccc(Cl)cc3)CCCCC2)CCN1CC(=O)O` [Cpd I-26, (R)-2-(4-(1-(4-chlorophenyl)cyclohexyl)-2-methylpiperazin-1-yl)acetic acid], for which inhibition was half-maximal at 101 nM (IC50).

For the compound `C[C@@H]1CN(C2c3ccccc3CCc3ccccc32)CCN1CC(=O)O` [Cpd I-5], inhibition was half-maximal at 147 nM (IC50).

In the case of `O=C(O)CN1CCC(C(c2ccccc2)c2ccccc2)CC1` [Cpd I-8, 2-(4-benzhydrylpiperidin-1-yl)acetic acid], the IC50 was 536 nM.

Compound `O=C(O)CN1CCC(N(c2ccccc2)c2ccc(C(F)(F)F)cc2)CC1` [Cpd I-22, 2-(4-(phenyl(4-(trifluoromethyl)phenyl)-amino)piperidin-1-yl)acetic acid] yielded an IC50 of 129 nM.

Consider `O=C(O)CN1CCCC(C(c2ccccc2)c2ccc(C(F)(F)F)cc2)C1` (centres unmarked) [Cpd II-1, 2-(3-(phenyl(4-(trifluoromethyl)-phenyl)methyl)piperidin-1-yl)acetic acid], for which 562 nM corresponded to half-maximal inhibition (IC50).

The compound `C[C@@H]1CN(c2c3ccccc3cc3ccccc23)CCN1CC(=O)O` [Cpd I-12, (R)-2-(4-anthracen-9-yl-2-methyl-piperazin-1-yl)acetic acid] returned a half-maximal inhibitory concentration (IC50) of 687 nM.

With `O=C(O)CN1CCN(c2c3ccccc3cc3ccccc23)CC1` [Cpd I-11, 2-(4-anthracen-9-ylpiperazin-1-yl)acetic acid], the IC50 is over 10000 nM.

Compound `O=C(O)CN1CCC(C(c2ccccc2)c2ccccc2C(F)(F)F)CC1` (centres unmarked) [Cpd I-16, 2-(4-(phenyl(2-(trifluoromethyl)-phenyl)-methyl)piperidin-1-yl)acetic acid] yielded an IC50 of 3520 nM.

In the case of `C[C@@H]1CN(C2(c3ccccc3)CCCCC2)CCN1CC(=O)O` [Cpd I-14, (R)-2-(2-methyl-4-(1-phenyl-cyclohexyl)-piperazin-1-yl)acetic acid], the IC50 turned out to be 1530 nM.

In the case of `CC1CC(C(c2ccccc2)c2ccccc2)CCN1CC(=O)O` (centres unmarked) [Cpd I-15, 2-(4-benzhydryl-2-methyl-piperidin-1-yl)acetic acid], the concentration for half-maximal inhibition (IC50) is 52 nM.

Broadly, the IC50 is the point on the concentration scale where inhibition reaches its midpoint. Lower therefore signals greater potency.
